# Measurements from US20040048260A1, “Transfection of nucleic acid” (priority 2002, published 2004).
# Key:
# [1] = Stability of DOTAP coating on 96-well plates under complete medium, examined by microscope; type: physicochemical
# Method: (§1) Standard 96-well plates were coated with 1,2 bis(oleoyloxy)-3-(trimethylammonio)propane (DOTAP; purchased from Avanti, Alabaster, Ala.), a cationic lipid. More specifically, 50-microliter aliquots of 2.5 nM, 5 nM, 10 nM, 40 nM, 60 nM, and 80 nM DOTAP methanolic solutions were added to the wells of six sets of the 96-well plates respectively. The plates were then dried overnight in a vacuum-drier and stored in a dessicator until use.
# In one experiment, 100 microliters of a complete medium (i.e., RPMI medium containing 10% fetal calf serum, 50 units ml^−1 penicillin, and 50 micrograms ml^−1 streptomycin) was added to each well of the coated plates. The coated surfaces and the overlaying medium were then examined under a microscope at 6-hr intervals for 24 hr.
# HeLa cells [2] = test: Transfection of HeLa cells with EGFP plasmid on coated 96-well plates; type: cell-based; details: 24 hr
# From the text: The coated plates prepared in Example 1 were used to transfect HeLa cells with an expression plasmid encoding Enhanced Green Fluorescent Protein (EGFP; purchased from Clontech, Inc., Palo Alto, Calif.). […] Before transfection, 1×10^6 HeLa cells were harvested and resuspended in 5 milliliters of the complete medium described in Example 1. 1 microgram of the EGFP plasmid was mixed with the cells. The mixture was subsequently placed into the coated plates (about 5,000 cells per well). After the cells had grown on the plates for 24 hr, pictures were taken under a fluorescent microscope.
# Standard 96-well plates were coated with polyethylenimine […], a cationic polymer. More specifically, PEI (MW 25,000 Daltons) was purchased from Sigma-Aldrich (St. Louis, Mo.) and dissolved in deionized water to reach a concentration of 10 mg/ml. Each PEI solution was passed through a 0.45-micrometer filter membrane. This filtrate was used as the PEI stock solution and stored at 4° C. To coat the plates, the stock solution was diluted with sterile deionized water to 20 microgram/ml and a 10-microliter aliquot was added to each well of 96-well plates. The plates were dried and stored in the manner as described in Example 1.
# To conduct transfection, HeLa cells were mixed with the EGFP plasmid in the complete medium described in Example 1 and placed onto the PEI-coated plates. […]
# [3] = system: fluorescent-labeled oligonucleotide; test: Capture of fluorescent-labeled oligonucleotide by coated plates (fluorescent microscope); type: binding; details: 0.1 microgram oligonucleotide per well in 100 microliters complete medium
# Method: as §1
# In another experiment, 0.1 microgram of fluorescent-labeled oligonucleotide was added to each well of the coated plates containing 100 microliters of the above-mentioned medium. The plates were then observed under a fluorescent microscope. The fluorescence was detected only on the coated surfaces but not in the medium.
# HeLa cells [4] = test: Transfection of HeLa cells with EGFP plasmid on glass slides tethered with DOTAP or PEI; type: cell-based; details: HeLa cells on glass slides printed with gelatin or chitosan and tethered coating, 24 hours
# Method: Glass slides were tethered with DOTAP or PEI and used to transfect HeLa cells.
# More specifically, borosilicate glass slides (VWR Scientific, Media, Pa.) were cleaned with Linbro 7× detergent (ICN Biomedicals, Inc., Aurora, Ohio), diluted 1:3 (v/v) in deionized water, and baked at 450° C. for 4 hr. The slides were then printed with gelatin or chitosan by microcontact printing using polydimethylsiloxane (PDMS; Sylgard 184; Dow Corning, Midland, Mich.) elastomer stamps. See Kam L. et al., J Biomed Mater Res. 55: 487-495 (2001). One milliliter of 10 nM DOTAP solution and 20 microgram/ml PEI solutions were respectively overlaid onto two set of slides for one minute. The slides were then briefly rinsed with Dulbecco's modified Eagle's medium (DMEM; Gibco BRL, Great Island, N.Y.) before use.
# HeLa cells were mixed with the EGFP plasmid and seeded onto slides that were placed in 100 mm cell culture dishes containing the above-mentioned complete medium.
smiles,measurement,setting,value
"CCCCCCCC/C=C\CCCCCCCC(=O)OCC(C[N+](C)(C)C)OC(=O)CCCCCCC/C=C\CCCCCCCC (stereo not drawn) [DOTAP, 1,2 bis(oleoyloxy)-3-(trimethylammonio)propane]",liposome-like particles on the coated surfaces or in the medium,"[1]; complete medium, 24 hr, all plates",no liposome-like particles were found
same,change of coated surfaces under complete medium,"[1]; plates coated with 2.5-80 nM DOTAP solutions, examined at 6-hr intervals for 24 hr",no difference
same,cell shape / spreading on the coated plates,"HeLa cells [2]; HeLa cells, microscopic views",spread unexpectedly well
same,cells expressing GFP / transfected (of total HeLa cells),"HeLa cells [2]; coated 96-well plates, fluorescent microscope, PEI density greater than 0.3 microgram/cm^2",more than 80%
same,capture of nucleic acid (location of fluorescence),[3],effectively capture nucleic acid
same,cells found to express GFP,HeLa cells [4],80%
